For the test, the target named is T1, Human T-type calcium channel (Cav 3.2) (Homo sapiens, UniProt O95180).
T1 construct: Edward Perez-Reyes, University of Virginia, USA; host or cells: HEK293
T1 sequence (O95180 whole entry): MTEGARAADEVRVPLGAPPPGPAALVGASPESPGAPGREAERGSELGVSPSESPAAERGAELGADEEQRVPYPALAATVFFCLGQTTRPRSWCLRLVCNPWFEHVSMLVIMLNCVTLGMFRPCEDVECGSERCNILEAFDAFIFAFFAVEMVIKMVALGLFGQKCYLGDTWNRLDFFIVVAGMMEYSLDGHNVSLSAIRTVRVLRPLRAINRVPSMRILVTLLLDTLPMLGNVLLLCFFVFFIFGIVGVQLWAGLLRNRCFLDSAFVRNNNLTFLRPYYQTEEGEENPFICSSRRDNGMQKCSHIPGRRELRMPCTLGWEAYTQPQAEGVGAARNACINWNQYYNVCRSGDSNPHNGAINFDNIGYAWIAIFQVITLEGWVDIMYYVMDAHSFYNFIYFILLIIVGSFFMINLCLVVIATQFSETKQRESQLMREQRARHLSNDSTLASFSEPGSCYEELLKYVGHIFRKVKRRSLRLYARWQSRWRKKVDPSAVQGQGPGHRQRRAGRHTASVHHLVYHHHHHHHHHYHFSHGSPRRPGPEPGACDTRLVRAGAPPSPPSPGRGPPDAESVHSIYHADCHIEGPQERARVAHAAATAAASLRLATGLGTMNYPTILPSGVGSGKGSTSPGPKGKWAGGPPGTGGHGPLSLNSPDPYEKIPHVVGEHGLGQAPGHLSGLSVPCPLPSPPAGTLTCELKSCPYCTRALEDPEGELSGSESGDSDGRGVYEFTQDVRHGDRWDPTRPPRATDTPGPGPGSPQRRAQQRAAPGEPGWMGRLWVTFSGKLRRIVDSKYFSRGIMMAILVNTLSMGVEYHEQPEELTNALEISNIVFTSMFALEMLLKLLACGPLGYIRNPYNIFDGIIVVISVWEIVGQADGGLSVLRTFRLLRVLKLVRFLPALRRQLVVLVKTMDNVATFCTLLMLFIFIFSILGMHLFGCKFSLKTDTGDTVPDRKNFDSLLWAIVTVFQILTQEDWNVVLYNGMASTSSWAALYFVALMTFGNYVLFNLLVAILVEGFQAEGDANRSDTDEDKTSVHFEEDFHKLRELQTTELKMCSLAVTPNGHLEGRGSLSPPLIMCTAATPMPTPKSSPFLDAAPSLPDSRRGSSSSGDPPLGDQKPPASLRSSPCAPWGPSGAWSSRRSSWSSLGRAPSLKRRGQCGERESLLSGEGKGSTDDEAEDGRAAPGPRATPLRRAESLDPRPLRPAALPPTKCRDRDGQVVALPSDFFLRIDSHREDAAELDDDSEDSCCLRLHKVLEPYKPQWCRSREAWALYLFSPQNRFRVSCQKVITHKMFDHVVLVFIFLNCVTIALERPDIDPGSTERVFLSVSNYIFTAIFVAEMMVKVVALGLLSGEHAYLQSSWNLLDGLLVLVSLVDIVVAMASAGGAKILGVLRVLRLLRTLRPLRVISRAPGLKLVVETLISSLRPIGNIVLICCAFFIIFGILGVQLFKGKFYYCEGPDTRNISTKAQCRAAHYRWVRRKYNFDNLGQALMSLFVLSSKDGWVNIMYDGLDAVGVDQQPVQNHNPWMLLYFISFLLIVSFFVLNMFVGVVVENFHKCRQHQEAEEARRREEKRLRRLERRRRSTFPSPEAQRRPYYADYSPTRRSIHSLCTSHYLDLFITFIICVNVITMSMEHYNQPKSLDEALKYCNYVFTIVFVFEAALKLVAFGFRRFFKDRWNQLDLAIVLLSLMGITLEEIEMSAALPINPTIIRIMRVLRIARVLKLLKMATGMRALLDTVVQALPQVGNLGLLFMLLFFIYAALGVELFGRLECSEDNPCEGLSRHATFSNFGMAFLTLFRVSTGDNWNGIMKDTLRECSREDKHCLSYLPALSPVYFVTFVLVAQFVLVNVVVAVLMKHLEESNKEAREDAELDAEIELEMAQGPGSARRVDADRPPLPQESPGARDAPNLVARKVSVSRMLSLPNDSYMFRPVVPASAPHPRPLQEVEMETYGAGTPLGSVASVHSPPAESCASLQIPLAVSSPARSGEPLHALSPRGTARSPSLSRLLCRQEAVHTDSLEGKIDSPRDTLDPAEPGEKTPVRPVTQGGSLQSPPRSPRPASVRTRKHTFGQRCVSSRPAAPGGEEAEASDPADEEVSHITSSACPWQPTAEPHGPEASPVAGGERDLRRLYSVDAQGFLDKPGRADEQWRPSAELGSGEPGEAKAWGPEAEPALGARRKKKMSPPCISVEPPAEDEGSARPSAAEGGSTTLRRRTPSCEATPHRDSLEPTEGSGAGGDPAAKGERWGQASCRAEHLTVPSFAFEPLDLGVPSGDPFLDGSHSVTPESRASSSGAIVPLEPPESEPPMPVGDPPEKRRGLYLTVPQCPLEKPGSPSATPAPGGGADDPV
In words: Calcium Influx Inhibition Assay. The format is cell-based. As to conditions: Human T-type calcium channel (Cav 3.2) expressing HEK293 cells, FLIPR Calcium 4 fluorescence. Here is the method:
1. Calcium Influx Inhibition Assay
Human T-type calcium channel (Cav 3.2) expressing HEK293 cells were obtained from Prof. Edward Perez-Reyes, University of Virginia, USA. The calcium-sensitive fluorescent dye used was FLIPR Calcium 4 Assay Kit (Molecular Devices). To a black 96-well plate with a clear bottom coated with type I collagen, the human T-type calcium channel (Cav 3.2) expressing HEK293 cells were seeded and cultured overnight, and the culture medium was removed. A solution of the calcium-sensitive fluorescent dye was added, and the plate was incubated at 37° C. in an atmosphere of 5% carbon dioxide for 30 minutes. To the plate, a diluted solution of a compound was added, and the whole was further incubated at 37° C. in an atmosphere of 5% carbon dioxide for 30 minutes. While fluorescence was continuously analyzed from the bottom with a FlexStation 3 (Molecular Devices), a calcium solution was added. […] From the rise in the fluorescence from the base line, the inhibition percentage was calculated. The logarithms of compound concentrations were plotted with respect to the inhibition activities to give an IC50 value.
One may read the IC50 as the concentration at which inhibition is half-maximal. As to `CC(C)(C)OC(=O)N1C[C@@H](CNc2ncn(Cc3ccc(C(F)(F)F)s3)c(=O)n2)[C@H](c2ccc(F)cc2)C1` [compound 312], the IC50 stood at 550 nM. For the compound `O=c1nc(N2CC=C(c3ccc(F)c(Cl)c3)[C@@H](O)C2)ncn1Cc1ccc(Cl)s1` [compound 400], the IC50 was 4.4 nM. `O=c1nc(N2CCN(c3ccc(F)cc3)CC2)nc(CO)n1Cc1ccc(C(F)(F)F)s1` [458b]: the IC50 was 53 nM. For the compound `O=c1nc(N2CC=C(c3ccc(F)cc3)CC2)ncn1Cc1ccc2c(c1)CCCO2` [compound 178], the IC50 was 60 nM. Consider `Cc1nc(N2CC=C(c3ccc(F)cc3)CC2)nc(=O)n1Cc1ccc(C(F)(F)F)s1` [compound 340], for which the IC50 is 13 nM. The figure for `O=c1nc(N2CC=C(c3ccc(F)cc3)CC2)ncn1Cc1ccc(C2CC2)s1` [compound 479] is 66 nM. For the compound `Cc1nc(N2CC=C(c3ccc(F)c(Cl)c3)[C@@H](O)C2)nc(=O)n1Cc1ccc(C(F)(F)F)s1` [compound 350], the IC50 is 1.1 nM.

With `COc1nc(N2CCN(c3ccc(F)cc3)CC2)nc(=O)n1Cc1ccc(OCc2ccc(Cl)cc2)cc1` [compound 66], the IC50 was determined as 88 nM. Turning to `O=c1nc(N[C@H]2C[C@@H](c3ccc(F)cc3)C2)ncn1Cc1ccc(C(F)(F)F)s1` [compound 318], the IC50 was found to be 33 nM. Then `COc1nc(C2=CCN(c3ncn(Cc4ccc(C(F)(F)F)s4)c(=O)n3)C[C@@H]2O)ccc1Cl` [compound 329], with 4.8 nM.

For the origin of these results see patent US9403798B2, “Triazinone compound and T-type calcium channel inhibitor” (NISSAN CHEMICAL INDUSTRIES, LTD., priority 2012, dated 2016).
